Test results from patent publication US12030904B2 (priority 2020, dated 2024).
Where two headings read alike, the source gives them in different places.

Key:
[1] = system: Recombinant Respiratory Syncytial virus strain A2 containing the firefly luciferase reporter (RSV-Fluc); experiment: microbe, parasite or virus in culture; assay type: cell-based; conditions: human respiratory syncytial virus, NHBE
SARS-CoV-2 = experiment: microbe, parasite or virus in culture; assay type: cell-based
MT4 cytotoxicity (CC50) = conditions: human, MT4 cells
[2] = A549 cytotoxicity analysis (CellTiter-Glo); assay type: cell-based; conditions: human, A549 cells
Method: The cytotoxicity of compounds was determined in A549 cells in the following manner. Compounds (40 nL) were spotted onto 384-well Grenier plates prior to seeding 5000 A549 cells/well in a volume of 40 μL culture medium. The plates were incubated at 37° C. for 48 hours with 5% CO2. On day 2, 40 μL of CellTiter-Glo (Promega) was added and mixed 5 times. Plates were read for luminescence on an Envision (PerkinElmer) and the CC50 (compound concentration for reducing 50% of luminescence signal as a measure of cell viability) were calculated using a nonlinear regression model (four parameters). Two experiments were performed with technical duplicates.

[3] = 72 h, read-out: RSV-Fluc EC50 (NHBE), NHBE cells, three days, Table 1
[4] = Severe acute respiratory syndrome coronavirus 2, 48 h, read-out: SARS-CoV-2 EC50

Compound | EC50 [1, 3] [nM] | EC50 (SARS-CoV-2; [4]) [nM] | CC50 (MT4 cytotoxicity (CC50); MT4 CC50, Table 1a) [nM] | CC50 at 48 h ([2]; 48 hours, Table 1) [nM] | EC50 ([1]; 72 h, read-out: RSV-Fluc EC50 (NHBE), NHBE cells, three days, Table 2) [nM] | EC50 ([1]; read-out: RSV EC50, Table 2a) [nM] | EC50 (SARS-CoV-2; Severe acute respiratory syndrome coronavirus 2, Table 3, read-out: SARS-CoV-2 EC50) [nM] | EC50 (SARS-CoV-2; Severe acute respiratory syndrome coronavirus 2, read-out: SARS EC50) [nM] | CC50 (MT4 cytotoxicity (CC50); MT4 CC50, Table 2a) [nM] | CC50 at 48 h ([2]; Table 3) [nM]
CCCCCCCCCCCCCCCCCCOC[C@H](COP(=O)(O)OC[C@H]1O[C@@](C#N)(c2ccc3c(N)ncnn23)[C@H](O)[C@@H]1O)OCc1ccccc1 [Example 1, ((2R,3S,4R,5R)-5-(4-aminopyrrolo[2,1-f][1,2,4]triazin-7-yl)-5-cyano-3,4-dihydroxytetrahydrofuran-2-yl)methyl ((R)-2-(benzyloxy)-3-(octadecyloxy)propyl) hydrogen phosphate] | 90 | 940 | 3960 | 20000 | – | – | – | – | – | –
CCCCCCCCCCCCCCCCCCOC[C@H](COP(=O)(O)OC[C@H]1O[C@@](C#N)(c2ccc3c(N)ncnn23)[C@H](O)[C@@H]1O)OCc1ccc(-c2ccccc2)cc1 [Example 2, (R)-2-([1,1′-biphenyl]-4-ylmethoxy)-3-(octadecyloxy)propyl (((2R,3S,4R,5R)-5-(4-aminopyrrolo[2,1-f][1,2,4]triazin-7-yl)-5-cyano-3,4-dihydroxytetrahydrofuran-2-yl)methyl) hydrogen phosphate] | 350 | 430 | 14700 | > 50000 | – | – | – | – | – | –
CCCCCCCCCCCCCCCCCCOC[C@H](COP(=O)(O)OC[C@H]1O[C@@](C#N)(c2ccc3c(N)ncnn23)[C@H](O)[C@@H]1O)OCC1CCCCC1 [Example 3, ((2R,3S,4R,5R)-5-(4-aminopyrrolo[2,1-f][1,2,4]triazin-7-yl)-5-cyano-3,4-dihydroxytetrahydrofuran-2-yl)methyl ((R)-2-(cyclohexylmethoxy)-3-(octadecyloxy)propyl) hydrogen phosphate] | 120 | 340 | 14000 | 19000 | – | – | – | – | – | –
CCCCCCCCCCCCCCCCCCOC[C@H](COP(=O)(O)OC[C@H]1O[C@@](C#N)(c2ccc3c(N)ncnn23)[C@H](O)[C@@H]1O)OCc1ccc2ccccc2c1 [Example 4, ((2R,3S,4R,5R)-5-(4-aminopyrrolo[2,1-f][1,2,4]triazin-7-yl)-5-cyano-3,4-dihydroxytetrahydrofuran-2-yl)methyl ((R)-2-(naphthalen-2-ylmethoxy)-3-(octadecyloxy)propyl) hydrogen phosphate] | 60 | 340 | 4170 | 17000 | – | – | – | – | – | –
CCCCCCCCCCCCCCCCOC[C@H](COP(=O)(O)OC[C@H]1O[C@@](C#N)(c2ccc3c(N)ncnn23)[C@H](O)[C@@H]1O)OCc1ccccc1 [Example 5, ((2R,3S,4R,5R)-5-(4-aminopyrrolo[2,1-f][1,2,4]triazin-7-yl)-5-cyano-3,4-dihydroxytetrahydrofuran-2-yl)methyl ((R)-2-(benzyloxy)-3-(hexadecyloxy)propyl) hydrogen phosphate] | 50 | 480 | 6290 | 19000 | – | – | – | – | – | –
CCCCCCCCCCCCCCCCCCCOC[C@H](COP(=O)(O)OC[C@H]1O[C@@](C#N)(c2ccc3c(N)ncnn23)[C@H](O)[C@@H]1O)OCc1ccccc1 [Example 7, ((2R,3S,4R,5R)-5-(4-aminopyrrolo[2,1-f][1,2,4]triazin-7-yl)-5-cyano-3,4-dihydroxytetrahydrofuran-2-yl)methyl ((R)-2-(benzyloxy)-3-(nonadecyloxy)propyl) hydrogen phosphate] | 80 | 370 | 13900 | > 50000 | – | – | – | – | – | –
CCCCCCCCCCCCCCCCCCCCOC[C@H](COP(=O)(O)OC[C@H]1O[C@@](C#N)(c2ccc3c(N)ncnn23)[C@H](O)[C@@H]1O)OCc1ccccc1 [Example 8, ((2R,3S,4R,5R)-5-(4-aminopyrrolo[2,1-f][1,2,4]triazin-7-yl)-5-cyano-3,4-dihydroxytetrahydrofuran-2-yl)methyl ((R)-2-(benzyloxy)-3-(icosyloxy)propyl) hydrogen phosphate] | 110 | 800 | 33400 | 23000 | – | – | – | – | – | –
CCCCCCCCCCCCCCCCCCOC[C@H](COP(=O)(O)OC[C@H]1O[C@@](C#N)(c2ccc3c(N)ncnn23)[C@H](O)[C@@H]1O)OCc1ccc(C#N)cc1 [Example 9, ((2R,3S,4R,5R)-5-(4-aminopyrrolo[2,1-f][1,2,4]triazin-7-yl)-5-cyano-3,4-dihydroxytetrahydrofuran-2-yl)methyl ((R)-2-((4-cyanobenzyl)oxy)-3-(octadecyloxy)propyl) hydrogen phosphate] | 50 | 270 | 1430 | 30000 | – | – | – | – | – | –
CCCCCCCCCCCCCCCCCCOC[C@H](COP(=O)(O)OC[C@H]1O[C@@](C#N)(c2ccc3c(N)ncnn23)[C@H](O)[C@@H]1O)OCc1ccc(OC)cc1 [Example 10, ((2R,3S,4R,5R)-5-(4-aminopyrrolo[2,1-f][1,2,4]triazin-7-yl)-5-cyano-3,4-dihydroxytetrahydrofuran-2-yl)methyl ((R)-2-((4-methoxybenzyl)oxy)-3-(octadecyloxy)propyl) hydrogen phosphate] | 60 | 300 | 3430 | 20000 | – | – | – | – | – | –
CCCCCCCCCCCCCCCCCCOC[C@H](COP(=O)(O)OC[C@H]1O[C@@](C#N)(c2ccc3c(N)ncnn23)[C@H](O)[C@@H]1O)OCc1ccc(C(F)(F)F)cc1 [Example 11, ((2R,3S,4R,5R)-5-(4-aminopyrrolo[2,1-f][1,2,4]triazin-7-yl)-5-cyano-3,4-dihydroxytetrahydrofuran-2-yl)methyl ((R)-3-(octadecyloxy)-2-((4-(trifluoromethyl)benzyl)oxy)propyl) hydrogen phosphate] | 60 | 350 | 14500 | > 50000 | – | – | – | – | – | –
CCCCCCCCCCCCCCCCCCOC[C@H](COP(=O)(O)OC[C@H]1O[C@@](C#N)(c2ccc3c(N)ncnn23)[C@H](O)[C@@H]1OC(=O)C(C)C)OCc1ccccc1 [Example 12, (2R,3S,4R,5R)-5-(4-aminopyrrolo[2,1-f][1,2,4]triazin-7-yl)-2-(((((R)-2-(benzyloxy)-3-(octadecyloxy)propoxy)(hydroxy)phosphoryl)oxy)methyl)-5-cyano-4-hydroxytetrahydrofuran-3-yl isobutyrate] | 260 | 3200 | 50000 | 50000 | – | – | – | – | – | –
CCCCCCCCCCCCCCCCCCOC[C@H](COP(=O)(O)OC[C@H]1O[C@@](C#N)(c2ccc3c(N)ncnn23)[C@H](OC(=O)C(C)C)[C@@H]1OC(=O)C(C)C)OCc1ccccc1 [Example 13, (2R,3R,4R,5R)-2-(4-aminopyrrolo[2,1-f][1,2,4]triazin-7-yl)-5-(((((R)-2-(benzyloxy)-3-(octadecyloxy)propoxy)(hydroxy)phosphoryl)oxy)methyl)-2-cyanotetrahydrofuran-3,4-diyl bis(2-methylpropanoate)] | 2200 | > 10000 | 32800 | 15000 | – | – | – | – | – | –
CCCCCCCCCCCCCCCCCCOC[C@H](COP(=O)(O)OC[C@H]1O[C@@](C#N)(c2ccc3c(N)ncnn23)[C@H](O)[C@@H]1O)OCc1ccc(F)c(F)c1 [Example 14, ((2R,3S,4R,5R)-5-(4-aminopyrrolo[2,1-f][1,2,4]triazin-7-yl)-5-cyano-3,4-dihydroxytetrahydrofuran-2-yl)methyl ((R)-2-((3,4-difluorobenzyl)oxy)-3-(octadecyloxy)propyl) hydrogen phosphate] | 90 | 320 | 7190 | 13000 | – | – | – | – | – | –
CCCCCCCCCCCCCCCCCCOC[C@H](COP(=O)(O)OC[C@H]1O[C@@](C#N)(c2ccc3c(N)ncnn23)[C@H](O)[C@@H]1O)OCc1cc(F)cc(F)c1 [Example 15, [(2R,3S,4R,5R)-5-(4-aminopyrrolo[2,1-f][1,2,4]triazin-7-yl)-5-cyano-3,4-dihydroxy-tetrahydrofuran-2-yl]methyl [(2R)-2-[(3,5-difluorophenyl)methoxy]-3-octadecoxy-propyl] hydrogen phosphate] | 80 | 260 | 3310 | 13000 | – | – | – | – | – | –
CCCCCCCCCCCCCCCCCCOC[C@H](COP(=O)(O)OC[C@H]1O[C@@](C#N)(c2ccc3c(N)ncnn23)[C@H](O)[C@@H]1O)OCc1cc(F)cc(C#N)c1 [Example 16, [(2R,3S,4R,5R)-5-(4-aminopyrrolo[2,1-f][1,2,4]triazin-7-yl)-5-cyano-3,4-dihydroxy-tetrahydrofuran-2-yl]methyl [(2R)-2-[(3-cyano-5-fluoro-phenyl)methoxy]-3-octadecoxy-propyl] hydrogen phosphate] | 60 | 220 | 433 | 18000 | – | – | – | – | – | –
CCCCCCCC/C=C\CCCCCCCCOC[C@H](COP(=O)(O)OC[C@H]1O[C@@](C#N)(c2ccc3c(N)ncnn23)[C@H](O)[C@@H]1O)OCc1cc(F)cc(C#N)c1 [Example 69, ((2R,3S,4R,5R)-5-(4-aminopyrrolo[2,1-f][1,2,4]triazin-7-yl)-5-cyano-3,4-dihydroxytetrahydrofuran-2-yl)methyl ((R)-2-((3-cyano-5-fluorobenzyl)oxy)-3-(((Z)-octadec-9-en-1-yl)oxy)propyl) hydrogen phosphate] | – | – | – | – | 24 | 23 | 150 | 150 | 730 | 860
